PMC4491662, “Synthesis, Biological Evaluation and Molecular Modeling of Substituted Indeno[1,2-b]indoles as Inhibitors of Human Protein Kinase CK2” (Pharmaceuticals, 2015)
Like-named read-outs stand apart in the source and are kept apart here.

Assays:
NIH-3T3 = assay: Cytotoxicity WST-1 assay on NIH-3T3; type: cell-based, mouse; settings: for EC50: Mus musculus, NIH3T3, 96 h, read-out: EC50 in µM ± SD
Source text: (§1) Four cell lines of various origins were used to evaluate the cytotoxicity of our target compounds 5–7. The selected cell lines were (i) NIH-3T3, a cell line originally established from the primary mouse embryonic fibroblast cells, (ii) MEF, primary mouse embryonic fibroblasts (used at their early passages) prepared as previously described, (iii) WI-38, a human diploid cell line derived from normal embryonic lung tissue, and (iv) HEK293T, a transformed variant of the human embryonic kidney cell line HEK293. After 96 h, cytotoxicity was evaluated using the WST-1 assay. […] Seventeen compounds were evaluated on the cell lines and then compared to TBB used as a standard. […]. All cells were grown in DMEM medium supplemented with 10% fetal calf serum, glutamine (2 mM), penicillin (100 U/mL), and streptomycin (50 μg/mL) at 37 °C under a humidified 5% CO2 atmosphere (Gibco). The assays were performed in sterile 96-wells microtiter plates (Falcon). Cells were plated at 500 (NIH-3T3), 750 (WI-38) or 1000 (MEF; HEK293T) cells/100 µL/well. Drug solutions (10 μL per well) of appropriate concentration (prepared by dilution in the culture medium from 2 mM stock acetonitrile solution) were added 24 h after cell seeding. For ellagic acid and emodin, DMSO was used to prepare the stock solution. After 96 h, the cytotoxicity is evaluated using the Cell Proliferation Reagent WST-1 following the procedure described by the manufacturer (Roche Applied Science). The drugs were assayed at 10, 5, 1, 0.2 and 0.04 µM in triplicate. The vehicle was used as control. The experiments were repeated three times.

WI-38 = assay: Cytotoxicity WST-1 assay on WI-38; type: cell-based, human; settings: WI-38, 96 h; for EC50: Homo sapiens, read-out: EC50 in µM ± SD
Source text: as §1

HEK293T = assay: Cytotoxicity WST-1 assay on HEK293T; type: cell-based, human; settings: 96 h; for EC50: Homo sapiens, HEK-293T, read-out: EC50 in µM ± SD
Source text: as §1

MEF = assay: Cytotoxicity WST-1 assay on MEF; type: cell-based, mouse; settings: 96 h; for EC50: Mus musculus, read-out: EC50 in µM ± SD
Source text: as §1

[1] = Cytotoxicity WST-1 assay, statements over the four cell lines; type: cell-based; settings: mouse (NIH-3T3, MEF) and human (WI-38, HEK293T), WST-1, cell line not specified, read-out: EC50 (cytotoxic activity, over the cell lines)
Source text: as §1

human CK2 holoenzyme [2] = molecular target: T1, human CK2 holoenzyme (Homo sapiens, UniProt P68400); assay: biochemical; settings: for inhibition at 10 µM: average percent inhibition at 10 µM
T1 sequence (P68400 whole entry): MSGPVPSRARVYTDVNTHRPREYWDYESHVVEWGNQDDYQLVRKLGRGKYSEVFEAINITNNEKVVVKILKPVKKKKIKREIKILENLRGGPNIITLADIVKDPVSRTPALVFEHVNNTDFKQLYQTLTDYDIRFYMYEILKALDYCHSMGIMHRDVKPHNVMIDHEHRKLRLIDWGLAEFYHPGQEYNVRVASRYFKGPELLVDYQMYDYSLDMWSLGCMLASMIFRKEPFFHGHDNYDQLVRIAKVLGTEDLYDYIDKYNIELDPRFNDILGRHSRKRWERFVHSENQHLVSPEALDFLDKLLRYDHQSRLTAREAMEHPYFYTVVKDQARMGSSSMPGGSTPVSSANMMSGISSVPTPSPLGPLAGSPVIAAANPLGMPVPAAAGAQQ
T1 sequence (P67870 whole entry partner): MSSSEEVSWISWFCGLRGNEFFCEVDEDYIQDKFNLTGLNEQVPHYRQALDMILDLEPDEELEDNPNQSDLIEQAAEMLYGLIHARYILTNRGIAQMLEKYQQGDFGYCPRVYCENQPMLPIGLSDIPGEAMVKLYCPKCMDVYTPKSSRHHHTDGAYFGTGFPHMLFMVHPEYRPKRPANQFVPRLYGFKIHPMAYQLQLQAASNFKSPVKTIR

human CK2 holoenzyme [3] = molecular target: T1, human CK2 holoenzyme; assay: Mode of inhibition and Ki determination, CE based CK2 activity assay at varied ATP; type: biochemical; design: made in house; host or cells: Escherichia coli BL21(DE3), pT7-7 expression system; settings: for IC50: IC50 at varied ATP
Protocol: For this purpose, reaction rates at different inhibitor concentrations were plotted in a Lineweaver-Burk diagram against the varying ATP concentration, resulting in −1/Kmapp as given by the intercepts with the abscissa in both graphs. For determining the Ki values, Kmapp were plotted against the different inhibitor concentrations as shown for 7a in Figure 6.
For this purpose, enzymatic reactions and IC50 determinations were performed as described in Section 3.3.2., but varying compositions of the assay buffer with respect to the ATP concentration were used. […] For this purpose, reaction velocities at different inhibitor concentrations were plotted in a Lineweaver-Burk diagram against the varied ATP concentrations and the corresponding −1/Kmapp were obtained by the intercepts with the abscissa. Finally the Kmapp values as obtained were plotted against the different inhibitor concentrations. By this method, the Ki values with a negative sign were given by the intercepts of the linear slope with the abscissa.

human CK2 holoenzyme [4] = molecular target: T1, human CK2 holoenzyme; settings: read-out: IC50 ± SD, assay buffer with 100 µM ATP

Row | Compound | EC50 (NIH-3T3) [µM] | EC50 (WI-38) [µM] | EC50 (HEK293T) [µM] | EC50 (MEF) [µM] | melting point [°C] | inhibition at 10 µM (human CK2 holoenzyme [2]) [%] | also measured
1 | CC1CC(=O)c2c3c(n(C(C)C)c2C1)-c1ccccc1C3=O (stereo not drawn) [Compound 5a, 5-Isopropyl-7-methyl-5,6,7,8-tetrahydroindeno[1,2-b]indole-9,10-dione] | > 10 | > 10 | > 10 | > 10 | – | – | EC50 at 96 h [1]: > 10 µM
2 | CC(C)C1CC(=O)c2c3c(n(C(C)C)c2C1)-c1ccccc1C3=O (stereo not drawn) [Compound 5b, 5,7-Diisopropyl-5,6,7,8-tetrahydroindeno[1,2-b]indole-9,10-dione] | > 10 | > 10 | > 10 | 4.4 ± 0.3 | – | – | EC50 at 96 h [1]: > 10 µM; IC50 (human CK2 holoenzyme [2]): 0.61 ± 0.03 µM
3 | CC(C)n1c2c(c3c1-c1ccccc1C3=O)C(=O)CC(c1ccccc1)C2 (stereo not drawn) [Compound 5c, 5-Isopropyl-7-phenyl-5,6,7,8-tetrahydroindeno[1,2-b]indole-9,10-dione] | > 10 | > 10 | > 10 | > 10 | 278 | 7 | –
4 | CC(C)n1c2c(c3c1-c1ccccc1C3=O)C(=O)CC(c1ccc(F)cc1)C2 (stereo not drawn) [Compound 5d, 7-(4-Fluorophenyl)-5-isopropyl-5,6,7,8-tetrahydroindeno[1,2-b]indole-9,10-dione] | – | – | – | – | 264 | 12 | –
5 | CC(C)n1c2c(c3c1-c1ccccc1C3=O)C(=O)CC(c1ccco1)C2 (stereo not drawn) [Compound 5e, 7-Furan-2-yl-5-isopropyl-5,6,7,8-tetrahydroindeno[1,2-b]indole-9,10-dione] | – | – | – | – | 233.1 | 35 | –
6 | CC1CCc2c(c3c(n2C(C)C)-c2ccccc2C3=O)C1=O (stereo not drawn) [Compound 5f, 5-Isopropyl-8-methyl-5,6,7,8-tetrahydroindeno[1,2-b]indole-9,10-dione] | > 10 | > 10 | > 10 | > 10 | – | – | –
7 | CC(C)C1CCc2c(c3c(n2C(C)C)-c2ccccc2C3=O)C1=O (stereo not drawn) [Compound 5g, 5,8-Diisopropyl-5,6,7,8-tetrahydroindeno[1,2-b]indole-9,10-dione] | > 10 | > 10 | > 10 | > 10 | 215 | 21 | –
8 | Cc1cc(O)c2c3c(n(C(C)C)c2c1)-c1ccccc1C3=O [Compound 6a, 9-Hydroxy-5-isopropyl-7-methyl-5H-indeno[1,2-b]indol-10-one] | > 10 | > 10 | > 10 | > 10 | – | – | –
9 | CC(C)c1cc(O)c2c3c(n(C(C)C)c2c1)-c1ccccc1C3=O [Compound 6b, 9-Hydroxy-5,7-diisopropyl-5H-indeno[1,2-b]indol-10-one] | > 10 | > 10 | > 10 | > 10 | 188.1 | – | –
10 | CC(C)n1c2c(c3c(O)cc(-c4ccccc4)cc31)C(=O)c1ccccc1-2 [Compound 6c, 9-Hydroxy-5-isopropyl-7-phenyl-5H-indeno[1,2-b]indol-10-one] | > 10 | > 10 | > 10 | > 10 | 198 | – | –
11 | CC(C)n1c2c(c3c(O)cc(-c4ccc(F)cc4)cc31)C(=O)c1ccccc1-2 [Compound 6d, 7-(4-Fluorophenyl)-9-hydroxy-5-isopropyl-5H-indeno[1,2-b]indol-10-one] | > 10 | > 10 | > 10 | > 10 | 208.1 | – | –
12 | CC(C)n1c2c(c3c(O)cc(-c4ccco4)cc31)C(=O)c1ccccc1-2 [Compound 6e, 7-Furan-2-yl-9-hydroxy-5-isopropyl-5H-indeno[1,2-b]indol-10-one] | > 10 | > 10 | > 10 | > 10 | 191 | – | –
13 | CC(C)c1ccc2c(c1O)c1c(n2C(C)C)-c2ccccc2C1=O [Compound 6g, 9-Hydroxy-5,8-diisopropyl-5H-indeno[1,2-b]indol-10-one] | – | – | – | – | 235 | – | –
14 | Cc1cc(=O)c2c3c(=O)c4ccccc4c3n(C(C)C)c2c1=O [Compound 7a, 5-Isopropyl-7-methyl-5H-indeno[1,2-b]indole-6,9,10-trione] | – | – | – | – | 235 | 87 | EC50 in µM ± SD (NIH-3T3; NIH-3T3, 96 h, WST-1): not soluble; EC50 in µM ± SD (WI-38; WST-1): not soluble; EC50 in µM ± SD (HEK293T; HEK293T, WST-1): not soluble; EC50 in µM ± SD (MEF; WST-1): not soluble; IC50 (human CK2 holoenzyme [2]): 0.43 ± 0.12 µM; Ki (human CK2 holoenzyme [3]): 0.144 ± 0.022 µM; IC50 (human CK2 holoenzyme [3]; fifth of six ATP concentrations ranging from 6 to 600 µM): 3.32 µM; IC50 (human CK2 holoenzyme [3]; fourth of six ATP concentrations ranging from 6 to 600 µM): 1.27 µM; IC50 (human CK2 holoenzyme [3]; highest of six ATP concentrations, 600 µM): 5.16 µM; IC50 (human CK2 holoenzyme [3]; lowest of six ATP concentrations, 6 µM): 0.13 µM; IC50 (human CK2 holoenzyme [3]; second of six ATP concentrations ranging from 6 to 600 µM): 0.34 µM; IC50 (human CK2 holoenzyme [3]; third of six ATP concentrations ranging from 6 to 600 µM): 0.43 µM; mode of CK2 inhibition (human CK2 holoenzyme [3]; IC50 increases linearly with ATP concentration): ATP competitive; IC50 at 600 µM ATP compared to IC50 at 6 µM ATP (human CK2 holoenzyme [3]; fold higher): 40 fold
15 | CC(C)c1cc(=O)c2c3c(=O)c4ccccc4c3n(C(C)C)c2c1=O [Compound 7b, 5,7-Diisopropyl-5H-indeno[1,2-b]indole-6,9,10-trione] | > 10 | > 10 | > 10 | > 10 | 230.4 | 60 | IC50 (human CK2 holoenzyme [4]): 4.76 ± 0.29 µM
16 | CC(C)n1c2c(=O)c(-c3ccccc3)cc(=O)c2c2c(=O)c3ccccc3c21 [Compound 7c, 5-Isopropyl-7-phenyl-5H-indeno[1,2-b]indole-6,9,10-trione] | > 10 | > 10 | 1.6 ± 0.2 | > 10 | 230.4 | 41 | EC50 at 96 h [1]: 0.4 to 8.8 µM
17 | CC(C)n1c2c(=O)c(-c3ccc(F)cc3)cc(=O)c2c2c(=O)c3ccccc3c21 [Compound 7d, 7-(4-Fluorophenyl)-5-isopropyl-5H-indeno[1,2-b]indole-6,9,10-trione] | > 10 | > 10 | 4.9 ± 2.4 | 8.5 ± 0.4 | 258.1 | 42 | EC50 at 96 h [1]: 0.4 to 8.8 µM
18 | CC(C)n1c2c(=O)c(-c3ccco3)cc(=O)c2c2c(=O)c3ccccc3c21 [Compound 7e, 7-Furan-2-yl-5-isopropyl-5H-indeno[1,2-b]indole-6,9,10-trione] | – | – | – | – | 216.1 | 82 | IC50 (human CK2 holoenzyme [2]): 1.65 ± 0.14 µM
19 | CC(C)c1cc(=O)c2c(c1=O)c1c(=O)c3ccccc3c1n2C(C)C [Compound 7g, 5,8-Diisopropyl-5H-indeno[1,2-b]indole-6,9,10-trione] | 1.5 ± 0.8 | 2.5 ± 0.4 | 0.4 ± 0.02 | > 10 | 226 | 45 | EC50 at 96 h [1]: 0.4 to 8.8 µM
20 | Brc1c(Br)c(Br)c2[nH]nnc2c1Br [TBB, reference compound] | > 10 | > 10 | > 10 | > 10 | – | – | –
21 | O=c1oc2c(O)c(O)cc3c(=O)oc4c(O)c(O)cc1c4c23 [ellagic acid, reference compound] | > 10 | > 10 | > 10 | > 10 | – | 95 | IC50 (human CK2 holoenzyme [4]): 0.04 ± 0.007 µM
22 | Cc1cc(O)c2c(c1)C(=O)c1cc(O)cc(O)c1C2=O [emodin, reference compound] | > 10 | > 10 | > 10 | > 10 | – | – | –
